Reference: article PMC12579162, “Synthesized Depside Molecules Suppress the Progression of Colorectal Cancer by Binding VDAC1/PHB/MMP9 Being at the Crossroads of Stemness, Motility, Apoptosis, and Metabolism” (MedComm, 2025)

What was measured:
DLD1 cells = assay: MTT cell viability, DLD1; assay type: cell-based; settings: Homo sapiens, DLD-1; 48 h, MTT assay
Protocol: Cells (3 × 10^3 cells/well) were seeded on a 96‐well plate, grown overnight, and then treated with compounds at indicated concentrations for 48 h. After incubation with MTT for 4 h at 37°C, cells were lysed with 150 µL of DMSO (Sigma–Aldrich, St. Louis, USA). Absorbance was measured at 570 nm on a microplate reader with the Gen5 software (v.2.03.1; BioTek, Winooski, VT, USA).

[1] = test system: CRC cells (CaCo2, DLD1, HCT116, HT29, and SW620); assay: Spheroid formation assay, CRC cell lines; assay type: cell-based, human; settings: 2.5 and 5 µM, 10–14 days
Protocol: Monolayer cells were separated into single‐cell suspensions at around 70% confluence using a solution of trypsin. After that, the cells were added to N2‐supplemented DMEM/F12 that contained human basal fibroblast growth factor and human recombinant epidermal growth factor. Cells seeded at a density of 5 × 10^3 cells/well in ultra‐low attachment 24‐well plates (Corning Inc., Corning, NY, USA). After 10–14 days of culture, spheres were quantitated by inverted phase contrast microscopy. The relative sphere formation ability was calculated through the IMT iSolution software (IMT iSolution Inc., Northampton, NJ, USA) measuring the pixel intensity of the sphere area randomly in each plate.

[2] = test system: CSC221, DLD1, CaCo2, HT29, HCT116, and SW620 cells; assay: Seahorse XF Cell Mito Stress Test; assay type: cell-based, human; settings: 5 µM, 48 h
Protocol: Seahorse XF96 extracellular flux analyzer (Agilent, Santa Clara, CA, USA) was used for glycolytic rate and cell mito stress test assays. Cells were seeded at 1 × 10^4 cells/well, incubated overnight in culture medium (2% FBS), and then treated with DMSO or compound for 48 h. The plated cells were twice washed and loaded (180 µL) with assay media enhanced with glutamine, sodium pyruvate, and glucose on the day of analysis. Before analysis, the cells were incubated for 1 h at 37°C in a non‐CO2 incubator. Then, cell mito stress, mito tox, or glycolytic rate assay was tested. Agilent Seahorse XF Mito Stress Test Kit was utilized in accordance with Agilent Seahorse's standard methodology. This test examines the OCR of cells directly, which provides important information on mitochondrial function. First, 1 µM oligomycin (inhibits ATP synthase) was injected. The second injection was FCCP (1 µM), an uncoupling agent that compresses the proton gradient and disturbs the mitochondrial membrane potential. Last injection with 0.5 µM Rotenone (Rot; a complex I inhibitor) + antimycin A (AA; a complex III inhibitor) was loaded for OCR analysis. Agilent Seahorse XF Glycolytic Rate Assay was utilized in accordance with Agilent Seahorse's standard methodology. […] The results were analyzed using the Wave software (Agilent).

Structure (SMILES): COCCOc1c(C)c(OC(=O)c2c(C)cc(OC)c(C)c2OC)cc(C)c1C(=O)OC [SB4, 4-(Methoxycarbonyl)-3-(2-methoxyethoxy)-2,5-dimethylphenyl 2,4-dimethoxy-3,6-dimethylbenzoate]
- IC50 (DLD1 cells): 4.08 µM
- spheroid formation [1]: suppressed spheroid formation
- oxygen consumption rate (OCR) [2]: dramatically suppresses the oxygen consumption rate (OCR)

Structure (SMILES): COCCCOc1c(C)c(OC(=O)c2c(C)cc(OC)c(C)c2OC)cc(C)c1C(=O)OC [SB5, 4-(Methoxycarbonyl)-3-(3-methoxypropoxy)-2,5-dimethylphenyl 2,4-dimethoxy-3,6-dimethylbenzoate]
- IC50 (DLD1 cells): 57.8 µM
- spheroid formation [1]: suppressed spheroid formation
- oxygen consumption rate (OCR) [2]: dramatically suppresses the oxygen consumption rate (OCR)
